In PubChem BioAssay AID1033 (Sanford-Burnham Center for Chemical Genomics, 2008) one finds Kd data, which are given here for 95 molecules.

Calls of active or inactive are those of the source. The rule behind the calls is not given here.

Usually Kd stands for the concentration at which binding is half-saturated.

The target in the assay is Chaperone protein DnaK (Escherichia coli (strain K12)) (UniProt P0A6Y8). The assay can be described thus: E. coli DnaK SBD ligand binding – biophysical, NMR, chaperone (AID 1033). To be noted: Purified DnaK SBD.
Chaperone protein DnaK (Escherichia coli (strain K12)), sequence (P0A6Y8 whole entry, looked up): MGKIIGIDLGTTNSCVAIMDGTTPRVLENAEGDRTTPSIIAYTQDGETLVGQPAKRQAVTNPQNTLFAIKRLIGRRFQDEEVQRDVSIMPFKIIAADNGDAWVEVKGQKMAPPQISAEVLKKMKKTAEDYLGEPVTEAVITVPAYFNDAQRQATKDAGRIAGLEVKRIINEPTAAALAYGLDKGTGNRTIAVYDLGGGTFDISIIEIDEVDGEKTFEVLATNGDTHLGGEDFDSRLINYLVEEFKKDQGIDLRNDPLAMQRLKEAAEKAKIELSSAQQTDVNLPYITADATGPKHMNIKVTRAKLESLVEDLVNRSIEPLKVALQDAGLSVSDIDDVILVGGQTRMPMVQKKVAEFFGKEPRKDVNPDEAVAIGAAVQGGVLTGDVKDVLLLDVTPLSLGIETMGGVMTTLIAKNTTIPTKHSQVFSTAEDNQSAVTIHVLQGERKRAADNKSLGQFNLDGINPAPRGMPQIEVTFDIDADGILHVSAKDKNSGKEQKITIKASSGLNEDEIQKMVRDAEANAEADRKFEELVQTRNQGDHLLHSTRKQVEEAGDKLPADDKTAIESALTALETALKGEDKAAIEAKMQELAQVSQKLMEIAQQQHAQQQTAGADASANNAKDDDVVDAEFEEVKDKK

Take `CC(=O)NC(C)(C)C1CC=C(C)/C(=N\O)C1` (stereo not given): the Kd was > 4 mM (inactive).
With `C=CCc1ccc2c(c1)OCO2`, the Kd was > 4 mM (inactive).
With `CNC(=S)Nc1ccc(OC)cc1C` the figure was > 4 mM (inactive); with `COC(=O)CC1C(C)(C)C(OC(C)=O)[C@@H]2[C@@H](OC(C)=O)[C@]34O[C@@]2(O)[C@]1(C)C3CC[C@]1(C)C4=CC(=O)O[C@H]1c1ccoc1` (stereo not given in full), > 4 mM (inactive).
With `NC(=O)CC[C@H](N)C(=O)O` the figure was > 4 mM (inactive).
With `NC(=O)c1ccc(NC(=O)C2CC2)cc1` the figure was > 4 mM (inactive).
Take `O=C(Nc1ccc2c(c1)OCO2)c1cccs1`: the Kd is > 4 mM (inactive).
The result for `CSc1nsc(SCc2cnc(C)nc2N)n1` reads > 4 mM (inactive); that for `CC(=O)Oc1c(C)cc(O)c2ccccc12`, > 4 mM (inactive).
The result for `O=[N+]([O-])c1cccc(CN2CCC(O)CC2)c1` reads > 4 mM (inactive); that for `OCc1ccc(-c2ccccn2)s1`, > 4 mM (inactive).
The result for `Nc1nsc(-c2ccccc2)n1` reads > 4 mM (inactive); that for `NC(=O)C12CC3CC(C1)C(=O)C(C3)C2`, > 4 mM (inactive); that for `O=C1NC(=S)NC(=O)C1=Cc1ccncc1`, > 4 mM (inactive).
On to `NC(=O)CN1CC(c2ccccc2)CC1=O` (stereo not given), for which the Kd was > 4 mM (inactive).
The result for `Oc1ccccc1N1CCCC1` reads > 4 mM (inactive).
Consider `Nc1ccccc1-n1cccn1`, for which the Kd was > 4 mM (inactive).
With `COc1ccc(-c2c(OC)c3c(OC)c4c(cc3oc2=O)OC(C)(C)C=C4)cc1`, the Kd was > 4 mM (inactive).
The result for `COC(=O)C[C@H]1C(C)(C)C(=O)[C@@H]2CC3=C4CC(=O)O[C@@H](c5ccoc5)[C@]4(C)CCC3C1(C)C2=O` (stereo not given in full) reads > 4 mM (inactive); that for `O=C1NC(=S)N/C1=C\c1ccccc1`, > 4 mM (inactive); that for `CCn1nccc1C(=O)Nc1ccc(Cl)cc1Cl`, > 4 mM (inactive).
For `Nc1nc(-c2ccccc2)ns1`, the Kd is > 4 mM (inactive).
With `O=C(CSc1ccc(Cl)cc1)N1CCOCC1` the figure was > 4 mM (inactive); with `C=CCNC(=O)c1nn2cccnc2c1Cl`, > 4 mM (inactive); with `Cc1oc(-c2ccccc2)cc1C(=O)O`, > 4 mM (inactive).
The result for `Cc1ccc(-n2nnnc2SCC(N)=O)c(C)c1` reads > 4 mM (inactive); that for `O=C(O)CCC(=O)NCc1cccnc1`, > 4 mM (inactive).
For the molecule `Cc1cc(NC(=O)Cc2cccs2)no1`, the Kd is > 4 mM (inactive).
With `CN1CCN(C2CCN(Cc3ccccc3)CC2)CC1` the figure was > 4 mM (inactive); with `Nc1nnc(SCc2ccc3c(c2)OCO3)s1`, > 4 mM (inactive); with `S=c1[nH]c2cccnc2[nH]1`, > 4 mM (inactive).
Consider `O=C(CSc1nc2ccccc2[nH]1)N1CCCCC1`, for which the Kd was > 4 mM (inactive).
The result for `CC(=O)c1ccc(NC(=O)c2ocnc2C)cc1` reads > 4 mM (inactive).
The result for `Cn1nnc2cc(C(=O)NCc3ccco3)ccc21` reads > 4 mM (inactive); that for `Cc1nc(-c2cc(CO)no2)cs1`, > 4 mM (inactive).
With `O=C1C2=C(SCCS2)C(=O)N1CCCO` the figure was > 4 mM (inactive); with `Nc1ccc2nccnc2c1`, > 4 mM (inactive).
Turning to `O=C(O)CCc1c[nH]c2ccccc12`, the Kd is > 4 mM (inactive).
With `Clc1ccc(-c2nnc3ccccn23)cc1` the figure was > 4 mM (inactive).
The result for `Cn1nc(-c2ccccc2)cc1N` reads > 4 mM (inactive); that for `CC(CCC(=O)O)[C@H]1CCC2C3CC[C@@H]4C[C@H](O)CC[C@]4(C)C3C[C@H](O)[C@@]21C` (stereo not given in full), > 4 mM (inactive); that for `CN1CCN(S(=O)(=O)c2ccc(=O)[nH]c2)CC1`, > 4 mM (inactive).
Turning to `COCc1c(CN)cnc(C)c1N`, the Kd is > 4 mM (inactive).
With `COc1ccccc1-c1cn[nH]c(=S)n1` the figure was > 4 mM (inactive).
The result for `Cc1cc(C)nc(/N=C(\N)N2CCc3ccccc32)n1` reads > 4 mM (inactive).
With `O=c1c(-c2ccccc2)coc2cc(O)cc(O)c12` the figure was > 4 mM (inactive).
As to `COc1ccc(/C=C2\NC(=S)N(C)C2=O)cc1O`, the Kd is > 4 mM (inactive).
The result for `Cc1cc(C)cc(OC(=O)N2CCOCC2)c1` reads > 4 mM (inactive).
The result for `NC12CC3CC(C1)CC(CC(=O)O)(C3)C2` reads > 4 mM (inactive); that for `Clc1ccccc1OCc1nc(-c2ccccn2)no1`, > 4 mM (inactive).
With `O=S1(=O)CCC(NCc2ccccc2)C1` (stereo not given) the figure was > 4 mM (inactive); with `CC(=O)Nc1cnn(-c2ccccc2)c(=O)c1Cl`, > 4 mM (inactive); with `CN1CCC[C@H]1c1cccnc1`, > 4 mM (inactive).
Regarding `O=c1c(-c2ccc(O)cc2)coc2cc(O)ccc12`, the Kd was > 4 mM (inactive).
The result for `O=C1NC(=O)C(Cc2ccccc2)C(=O)N1` reads > 4 mM (inactive); that for `CCOC(=O)c1cnn2ccccc12`, > 4 mM (inactive).
With `CC(=O)n1nc(-c2cccnc2)nc1N` the figure was > 4 mM (inactive); with `CN(C)C(=O)CSc1nc2ccccc2c(=O)[nH]1`, > 4 mM (inactive).
With `O=C1CNC(=O)N1Cc1ccc(F)cc1` the figure was > 4 mM (inactive); with `CC1Cc2nc(SCC(N)=O)n(C)c(=O)c2S1` (stereo not given), > 4 mM (inactive).
As to `Cn1c(CO)nc2cc(N)ccc21`, the Kd was > 4 mM (inactive).
With `C=C1C2CC[C@H]3[C@]4(C)C[C@H](OC5OC(CO)C(OS(=O)(=O)O)C(OS(=O)(=O)O)C5OC(=O)CC(C)C)C[C@@H](C(=O)O)[C@H]4CC[C@]3(C2)[C@H]1O` (stereo not given in full), the Kd was > 4 mM (inactive).
The result for `O=C(O)C1Cc2c([nH]c3ccccc23)CN1` (stereo not given) reads > 4 mM (inactive); that for `C[C@@H]1OC(O[C@H]2[C@H](OC(=O)[C@]34CCC(C)(C)CC3C3=CCC5[C@@]6(C)CC[C@H](OC7O[C@@H](C)[C@H](O[C@@H]8OC[C@@H](O)[C@H](O)[C@H]8O)[C@@H](O)[C@H]7O)C(C)(C)C6CC[C@@]5(C)[C@]3(C)CC4O)OC[C@H](O)[C@H]2O)[C@H](O)[C@H](O)[C@H]1O[C@@H]1O[C@H](CO)[C@@H](O)[C@H](O)[C@H]1O` (stereo not given in full), > 4 mM (inactive); that for `COC(=O)[C@@H]1C(O)CC[C@H]2CN3CCc4c([nH]c5ccccc45)[C@@H]3C[C@@H]21` (stereo not given in full), > 4 mM (inactive).
As for `Cc1cc(C(=O)NCc2cccnc2)no1`, the Kd was > 4 mM (inactive).
The result for `COC(=O)C1=CO[C@@H](O[C@@H]2O[C@H](CO)[C@@H](O)[C@H](O)[C@H]2O)[C@@H]2[C@@H](C)[C@@H](O)C[C@H]12` reads > 4 mM (inactive).
The result for `CC1(C)Cc2cccc(C(=O)O)c2O1` reads > 4 mM (inactive); that for `O=C(/C=C/c1ccc(O)cc1)c1ccc(O)cc1O`, > 4 mM (inactive); that for `CCCn1cnn2c(=O)cc(C)nc12`, > 4 mM (inactive).
The result for `Cc1cc(NC(=O)c2ccc3c(c2)OCO3)no1` reads > 4 mM (inactive); that for `Cc1cc(=O)n2[nH]c(COc3ccccc3)nc2n1`, > 4 mM (inactive); that for `Nc1nnc(SCc2ccc(F)cc2Cl)s1`, > 4 mM (inactive).
For the molecule `O=C(O)CSCc1ccc(Cl)cc1`, the Kd was > 4 mM (inactive).
Regarding `CCOC(=O)c1c(-c2ccncc2)csc1N`, the Kd is > 4 mM (inactive).
For the molecule `NC(=O)C1CCN(CN2C(=O)c3ccccc3C2=O)CC1`, the Kd was > 4 mM (inactive).
With `CCSc1nc(C)c(CC)c(C)c1C(N)=O` the figure was > 4 mM (inactive); with `O=C1NC(=S)NC(=O)C1=Cc1ccco1`, > 4 mM (inactive); with `CCc1ccc2oc(-c3cc(N)cc(C)c3O)nc2c1`, > 4 mM (inactive).
Regarding `COc1cc2c(cc1-c1cc3cc4ccoc4cc3oc1=O)OCO2`, the Kd was > 4 mM (inactive).
The result for `C=C1C[C@]23C[C@@]1(O)CC[C@H]2[C@@]12C=C[C@H](O)C(C)(C(=O)O1)[C@H]2[C@@H]3C(=O)O` reads > 4 mM (inactive); that for `CC(=O)O[C@@H]1CC2C(C)(C)CCC(=O)[C@]2(C)C2CC[C@@]3(C)[C@H](c4ccoc4)OC(=O)C4OC43[C@@]21C` (stereo not given in full), > 4 mM (inactive).
With `O=C(O)C1=CCCNC1` the figure was > 4 mM (inactive); with `Cn1c(NCc2ccccc2O)nc2ccccc21`, > 4 mM (inactive); with `COc1ccc(-c2cc(=O)c3c(O)cc(O[C@H]4O[C@H](CO[C@@H]5O[C@@H](C)[C@H](O)[C@@H](O)[C@H]5O)[C@@H](O)[C@H](O)[C@H]4O)cc3o2)cc1`, > 4 mM (inactive).
With `COc1ccccc1/C=C/CN1CCOCC1` the figure was > 4 mM (inactive).
For the molecule `CC(=O)O[C@@H]1CC2C(C)(C)C(=O)C=C[C@]2(C)C2CC[C@@]3(C)[C@H](c4ccoc4)OC(=O)[C@H]4O[C@]43[C@@]21C` (stereo not given in full), the Kd was > 4 mM (inactive).
Consider `O=C1OCCC1Sc1nc2ccccc2c(=O)[nH]1` (stereo not given), for which the Kd was > 4 mM (inactive).
On to `CNC(=O)N1CCN(C(=O)NC)CC1`, for which the Kd was > 4 mM (inactive).
With `COC(=O)C[C@H]1C(C)(C)C(OC(C)=O)[C@]2(O)C=C3C(CC[C@]4(C)C3CC(=O)O[C@H]4c3ccoc3)C1(C)C2=O` (stereo not given in full), the Kd was > 4 mM (inactive).
The result for `Cc1nnc(N2CCc3ccccc3C2)[nH]c1=O` reads > 4 mM (inactive).
With `C[C@@H]1C(=O)O[C@H]2[C@H]1CC[C@@]1(C)C=CC(=O)[C@@]3(C)O[C@@]213` the figure was > 4 mM (inactive); with `CC(C)CCCC(C)[C@H]1CCC2C3CC=C4C[C@@H](O)CC[C@]4(C)C3CC[C@@]21C` (stereo not given in full), > 4 mM (inactive); with `Cc1cc(N2CCN(C)CC2)ncn1`, > 4 mM (inactive).
With `CC1(C)C(=O)C=C[C@@]2(C)C1C=C[C@]1(C)C2CC[C@@]2(C)[C@H](c3ccoc3)OC(=O)C3OC321` (stereo not given in full) the figure was > 4 mM (inactive).
